# Results taken from US10487093B2, “Heterocyclic compounds, in particular 2-oxo-4,4,5,5,6,6,7,7-octahydrobenzoxazole derivatives, and their use as antibacterial compounds” (priority 2016, dated 2019).
# Where two headings read alike, the source gives them in different places.
# Experiments:
# Assay type in all cases: cell-based
# [1] = test system: strains of Peptostreptococcus anaerobius; assay: MIC against anaerobes, agar dilution (CLSI), clinical isolates
# [2] = test system: strains of Finegoldia magna; assay: as above; details: Finegoldia magna, read-out: MIC
# [3] = test system: Bacteroides fragilis ATCC 25285; assay: MIC against anaerobes, agar dilution (CLSI), reference strain; details: ATCC25285, agar dilution, Brucella blood agar, 35° C., 48 h, anaerobic conditions, read-out: MIC, B. fragilis ATCC 25285
# [4] = test system: strains of Peptoniphilus harei; assay: MIC against anaerobes, agar dilution (CLSI), clinical isolates; details: Peptoniphilus harei, read-out: MIC
# [5] = test system: strains of Prevotella bivia; assay: as above
# [6] = test system: strains of Parvimonas micra; assay: as above
# [7] = test system: strains of Bacteroides fragilis; assay: as above
# [8] = test system: strains of Clostridium perfringens; assay: microbe, parasite or virus in culture
# [9] = test system: strains of Propionibacterium acnes; assay: MIC against anaerobes, agar dilution (CLSI), clinical isolates; details: Cutibacterium acnes
# [10] = test system: Clostridium difficile ATCC 700057; assay: MIC against anaerobes, agar dilution (CLSI), reference strain; details: Clostridioides difficile, ATCC700057, 48 h, read-out: MIC, C. difficile ATCC 700057
# [11] = test system: strains of Prevotella melaninogenica; assay: MIC against anaerobes, agar dilution (CLSI), clinical isolates
# [12] = test system: strains of Bacteroides thetaiotaomicron; assay: microbe, parasite or virus in culture
# [13] = test system: Bacteroides thetaiotaomicron ATCC 29741; assay: microbe, parasite or virus in culture; details: ATCC29741, 48 h, read-out: MIC, B. thetaiotaomicron ATCC
smiles,measurement,setting,value
"Cc1ncc([N+](=O)[O-])n1CCO [MTZ, metronidazole, reference compound]",MIC,[1]; Peptostreptococcus anaerobius strain 1,< 1 µg/mL
same,MIC,[1]; Peptostreptococcus anaerobius strain 2,< 1 µg/mL
same,MIC,[1]; Peptostreptococcus anaerobius strain 3,< 1 µg/mL
same,MIC,[1]; Peptostreptococcus anaerobius strain 4,< 1 µg/mL
same,MIC,[1]; Peptostreptococcus anaerobius strain 5,< 1 µg/mL
same,MIC,[1]; Peptostreptococcus anaerobius strain 6,< 1 µg/mL
same,MIC,[1]; Peptostreptococcus anaerobius strain 7,< 1 µg/mL
same,MIC,[1]; Peptostreptococcus anaerobius strain 8,< 1 µg/mL
same,MIC,[1]; Peptostreptococcus anaerobius strain 9,< 1 µg/mL
same,MIC,[1]; Peptostreptococcus anaerobius strain 10,< 1 µg/mL
same,MIC,[2]; Finegoldia magna strain 1,< 1 µg/mL
same,MIC,[2]; Finegoldia magna strain 2,< 1 µg/mL
same,MIC,[2]; Finegoldia magna strain 3,1 to 4 µg/mL
same,MIC,[2]; Finegoldia magna strain 4,< 1 µg/mL
same,MIC,[2]; Finegoldia magna strain 5,1 to 4 µg/mL
same,MIC,[2]; Finegoldia magna strain 6,1 to 4 µg/mL
same,MIC,[2]; Finegoldia magna strain 7,1 to 4 µg/mL
same,MIC,[2]; Finegoldia magna strain 8,1 to 4 µg/mL
same,MIC,[2]; Finegoldia magna strain 9,1 to 4 µg/mL
same,MIC,[2]; Finegoldia magna strain 10,1 to 4 µg/mL
same,MIC,[2]; Finegoldia magna strain 11,1 to 4 µg/mL
same,MIC,[2]; Finegoldia magna strain 12,< 1 µg/mL
same,MIC,[3],< 1 µg/mL
same,MIC,[4]; Peptoniphilus harei strain 1,1 to 4 µg/mL
same,MIC,[4]; Peptoniphilus harei strain 2,< 1 µg/mL
same,MIC,[4]; Peptoniphilus harei strain 3,< 1 µg/mL
same,MIC,[4]; Peptoniphilus harei strain 4,1 to 4 µg/mL
same,MIC,[4]; Peptoniphilus harei strain 5,< 1 µg/mL
same,MIC,[4]; Peptoniphilus harei strain 6,< 1 µg/mL
same,MIC,[4]; Peptoniphilus harei strain 7,< 1 µg/mL
same,MIC,[4]; Peptoniphilus harei strain 8,< 1 µg/mL
same,MIC,[4]; Peptoniphilus harei strain 9,1 to 4 µg/mL
same,MIC,[4]; Peptoniphilus harei strain 10,< 1 µg/mL
same,MIC,[4]; Peptoniphilus harei strain 11,< 1 µg/mL
same,MIC,[4]; Peptoniphilus harei strain 12,1 to 4 µg/mL
same,MIC,[5]; Prevotella bivia strain 1,1 to 4 µg/mL
same,MIC,[5]; Prevotella bivia strain 2,1 to 4 µg/mL
same,MIC,[5]; Prevotella bivia strain 3,1 to 4 µg/mL
same,MIC,[5]; Prevotella bivia strain 4,1 to 4 µg/mL
same,MIC,[5]; Prevotella bivia strain 5,1 to 4 µg/mL
same,MIC,[5]; Prevotella bivia strain 6,1 to 4 µg/mL
same,MIC,[5]; Prevotella bivia strain 7,1 to 4 µg/mL
same,MIC,[5]; Prevotella bivia strain 8,1 to 4 µg/mL
same,MIC,[5]; Prevotella bivia strain 9,1 to 4 µg/mL
same,MIC,[5]; Prevotella bivia strain 10,1 to 4 µg/mL
same,MIC,[6]; Parvimonas micra strain 1,1 to 4 µg/mL
same,MIC,[6]; Parvimonas micra strain 2,< 1 µg/mL
same,MIC,[6]; Parvimonas micra strain 3,< 1 µg/mL
same,MIC,[6]; Parvimonas micra strain 4,< 1 µg/mL
same,MIC,[6]; Parvimonas micra strain 5,< 1 µg/mL
same,MIC,[6]; Parvimonas micra strain 6,< 1 µg/mL
same,MIC,[6]; Parvimonas micra strain 7,< 1 µg/mL
same,MIC,[6]; Parvimonas micra strain 8,< 1 µg/mL
same,MIC,[6]; Parvimonas micra strain 9,< 1 µg/mL
same,MIC,[6]; Parvimonas micra strain 10,1 to 4 µg/mL
same,MIC,[6]; Parvimonas micra strain 11,< 1 µg/mL
same,MIC,[6]; Parvimonas micra strain 12,< 1 µg/mL
same,MIC,[7]; Bacteroides fragilis strain 1,< 1 µg/mL
same,MIC,[7]; Bacteroides fragilis strain 2,< 1 µg/mL
same,MIC,[7]; Bacteroides fragilis strain 3,< 1 µg/mL
same,MIC,[7]; Bacteroides fragilis strain 4,< 1 µg/mL
same,MIC,[7]; Bacteroides fragilis strain 5,< 1 µg/mL
same,MIC,[7]; Bacteroides fragilis strain 6,< 1 µg/mL
same,MIC,[7]; Bacteroides fragilis strain 7,< 1 µg/mL
same,MIC,[7]; Bacteroides fragilis strain 8,< 1 µg/mL
same,MIC,[7]; Bacteroides fragilis strain 9,< 1 µg/mL
same,MIC,[7]; Bacteroides fragilis strain 10,< 1 µg/mL
same,MIC,[7]; Bacteroides fragilis strain 11,< 1 µg/mL
same,MIC,[7]; Bacteroides fragilis strain 12,< 1 µg/mL
same,MIC,[8]; Clostridium perfringens strain 1,1 to 4 µg/mL
same,MIC,[8]; Clostridium perfringens strain 2,< 1 µg/mL
same,MIC,[8]; Clostridium perfringens strain 3,< 1 µg/mL
same,MIC,[8]; Clostridium perfringens strain 4,< 1 µg/mL
same,MIC,[8]; Clostridium perfringens strain 5,< 1 µg/mL
same,MIC,[8]; Clostridium perfringens strain 6,1 to 4 µg/mL
same,MIC,[8]; Clostridium perfringens strain 7,< 1 µg/mL
same,MIC,[8]; Clostridium perfringens strain 8,< 1 µg/mL
same,MIC,[8]; Clostridium perfringens strain 9,< 1 µg/mL
same,MIC,[8]; Clostridium perfringens strain 10,< 1 µg/mL
same,MIC,[8]; Clostridium perfringens strain 11,1 to 4 µg/mL
same,MIC,[9]; Propionibacterium acnes strain 1,16 to 64 µg/mL
same,MIC,[9]; Propionibacterium acnes strain 2,16 to 64 µg/mL
same,MIC,[9]; Propionibacterium acnes strain 3,16 to 64 µg/mL
same,MIC,[9]; Propionibacterium acnes strain 4,16 to 64 µg/mL
same,MIC,[9]; Propionibacterium acnes strain 5,16 to 64 µg/mL
same,MIC,[9]; Propionibacterium acnes strain 6,16 to 64 µg/mL
same,MIC,[9]; Propionibacterium acnes strain 7,16 to 64 µg/mL
same,MIC,[9]; Propionibacterium acnes strain 8,16 to 64 µg/mL
same,MIC,[9]; Propionibacterium acnes strain 9,16 to 64 µg/mL
same,MIC,[9]; Propionibacterium acnes strain 10,16 to 64 µg/mL
same,MIC,[9]; Propionibacterium acnes strain 11,16 to 64 µg/mL
same,MIC,[9]; Propionibacterium acnes strain 12,16 to 64 µg/mL
same,MIC,[10],< 1 µg/mL
same,MIC,[11]; Prevotella melaninogenica strain 1,< 1 µg/mL
same,MIC,[11]; Prevotella melaninogenica strain 2,< 1 µg/mL
same,MIC,[11]; Prevotella melaninogenica strain 3,< 1 µg/mL
same,MIC,[11]; Prevotella melaninogenica strain 4,< 1 µg/mL
same,MIC,[11]; Prevotella melaninogenica strain 5,< 1 µg/mL
same,MIC,[11]; Prevotella melaninogenica strain 6,< 1 µg/mL
same,MIC,[11]; Prevotella melaninogenica strain 7,< 1 µg/mL
same,MIC,[11]; Prevotella melaninogenica strain 8,< 1 µg/mL
same,MIC,[11]; Prevotella melaninogenica strain 9,< 1 µg/mL
same,MIC,[11]; Prevotella melaninogenica strain 10,< 1 µg/mL
same,MIC,[11]; Prevotella melaninogenica strain 11,< 1 µg/mL
same,MIC,[12]; Bacteroides thetaiotaomicron strain 1,< 1 µg/mL
same,MIC,[12]; Bacteroides thetaiotaomicron strain 2,< 1 µg/mL
same,MIC,[12]; Bacteroides thetaiotaomicron strain 3,1 to 4 µg/mL
same,MIC,[12]; Bacteroides thetaiotaomicron strain 4,1 to 4 µg/mL
same,MIC,[12]; Bacteroides thetaiotaomicron strain 5,1 to 4 µg/mL
same,MIC,[12]; Bacteroides thetaiotaomicron strain 6,1 to 4 µg/mL
same,MIC,[12]; Bacteroides thetaiotaomicron strain 7,< 1 µg/mL
same,MIC,[12]; Bacteroides thetaiotaomicron strain 8,1 to 4 µg/mL
same,MIC,[12]; Bacteroides thetaiotaomicron strain 9,< 1 µg/mL
same,MIC,[12]; Bacteroides thetaiotaomicron strain 10,1 to 4 µg/mL
same,MIC,[12]; Bacteroides thetaiotaomicron strain 11,1 to 4 µg/mL
same,MIC,[13],1 to 4 µg/mL
